Source: patent US4910203A, “Pteridine compounds” (priority 1984, dated 1990)
Read-outs that look alike come from different tables or passages of the source.

How the values were obtained:
male Wistar rats [1] = experiment: Diuresis test with individual pteridine compounds, intravenous, urine after 2.5 hours; assay type: in vivo; conditions: 2.5 μmol/kg i.v.; for K^+ -excretion: control 0.609; for Na^+ -excretion: control 0.83; for Volume of urine: control 7.37
Experimental: They were orally given 20 ml/kg of an 0.9% NaCl solution just before the test substance was administered intravenously. […] Injection was into the caudal vein under light ether anasthesia. As a rule six test animals were used per test. […] Analysis was performed as for the determination of potency given above. IA stands for 2,4,7-triamino-6-[4-(2-hydroxy-3-dimethylaminopropoxy)phenyl]-pteridine.

male Wistar rats [2] = experiment: Diuresis test: ED50 dose response, intravenous, urine electrolytes after 2.5 hours; assay type: in vivo; conditions: for ED50: Rattus norvegicus, iv, urine collected after 2.5 hours
Experimental: For the tests, male Wistar rats of about 130 g body weight from which food had been withheld for 18 hours were used. […] Intravenous administration for determining K^+ was at dosage intervals for the actiee substance of 0.05, 0.1, 0.2, 0.3, 0.6, 1, and 2 mg/kg: for determining Na^+ at dosage intervals of 0.5, 1, 2, 4, 8, 16 and 20 mg/kg. For the prior art substances compared, the same tests were made and these substances were further administered at 30 mg/kg and 100 mg/kg. Injection was into the caudal vein under light etherization. […] Peroral administration was by means of a stomach tube into the gastrointestinal tract.
Dose response curves were constructed by the use of non-linear regression analysis using the NONLIN computer program of C. Daniel and F. S. Wood in "Fitting Equations to Data" (J. Wiley & Sons, New York, 1980).
The characteristic quantity ED50 (potency) used in determining the diuretic activity is defined as the amount of active substance per kilogram of body weight required to produce a response in 50 percent of the subjects.

[3] = cited from earlier work
male Wistar rats [4] = conditions: furosemide 8.27 mg/kg i.v. alone; 1.5 hours; mean; control 5.0
Experimental: They were orally given 20 ml/kg of an 0.9% NaCl solution just before the test substance was administered intravenously. […] Injection was into the caudal vein under light ether anasthesia. As a rule six test animals were used per test. The animals were individually placed into diuresis cages and the urine was collected after 1.5 hours. Analysis was performed as for the determination of potency given above. IA stands for 2,4,7-triamino-6-[4-(2-hydroxy-3-dimethylaminopropoxy)phenyl]-pteridine.

[5] = K^+ (potassium-sparing), read-out: ED50 K^+
[6] = Na^+ (natriuretic), read-out: ED50 Na^+

Row | SMILES | K^+ -excretion (male Wistar rats [1]) [mmol/kg] | Na^+ -excretion (male Wistar rats [1]) [mmol/kg] | Volume of urine (male Wistar rats [1]) [L/kg] | other results
1 | CCCCN(CCCC)CC(O)COc1ccc(-c2nc3c(N)nc(N)nc3nc2N)cc1 (centres unmarked) [IL, 2,4,7-Triamino-6-[4-(2-hydroxy-3-di-n-butylaminopropoxy)phenyl]-pteridine] | 0.191 | 2.34 | 0.01376 | –
2 | CC(C)NCC(O)COc1ccc(-c2nc3c(N)nc(N)nc3nc2N)cc1 (centres unmarked) [IH, 2,4,7-Triamino-6-[4-(2-hydroxy-3-isopropylaminopropoxy)phenyl]-pteridine] | 0.161 | 2.49 | 0.01474 | –
3 | CCNCC(O)COc1ccc(-c2nc3c(N)nc(N)nc3nc2N)cc1 (centres unmarked) [IB, 2,4,7-Triamino-6-[4-(2-hydroxy-3-ethylaminopropoxy)phenyl]-pteridine] | 0.161 | 2.98 | 0.01878 | –
4 | CN(C)CC(O)COc1ccc(-c2nc3c(N)nc(N)nc3nc2N)cc1 (centres unmarked) [IA, 2,4,7-triamino-6-[4-(2-hydroxy-3-dimethylaminopropoxy)phenyl]-pteridine] | 0.180 | 2.78 | 0.01598 | ED50 (male Wistar rats [2]; [5]): 0.24 µmol/kg; ED50 (male Wistar rats [2]; Mg^+2 (magnesium-sparing), read-out: ED50 Mg^+2): 0.4 µmol/kg; ED50 (male Wistar rats [2]; [6]): 9.36 µmol/kg; diuretic efficacy (natriuretic, potassium- and magnesium-sparing properties) (male Wistar rats [2]; i.v.): outstanding diuretic efficacy
5 | Nc1nc(N)c2nc(-c3ccc(OCC(O)CN4CCOCC4)cc3)c(N)nc2n1 (centres unmarked) [ID, 2,4,7-Triamino-6-[4-(2-hydroxy-5-morpholinopropoxy)phenyl]-pteridine] | 0.237 | 2.78 | 0.0193 | –
6 | CNCC(O)COc1ccc(-c2nc3c(N)nc(N)nc3nc2N)cc1 (centres unmarked) [IC, 2,4,7-Triamino-6-[4-(2-hydroxy-3-methylaminopropoxy)phenyl]-pteridine] | 0.211 | 2.63 | 0.01585 | –
7 | CCN(CC)CC(O)COc1ccc(-c2nc3c(N)nc(N)nc3nc2N)cc1 (centres unmarked) [IE, 2,4,7-Triamino-6-[4-(2-hydroxy-3-diethylaminopropoxy)phenyl]-pteridine] | 0.163 | 2.61 | 0.01102 | –
8 | Nc1nc(N)c2nc(-c3ccc(OCCCCC(=O)O)cc3)c(N)nc2n1 [Val-O-TA, 2,4,7-triamino-6-[4-(4-carboxybutoxy)phenyl]-pteridine] | – | – | – | diuretic, natriuretic, and antikaliuretic activity ([3]; administered intravenously): exhibit diuretic, natriuretic, and antikaliuretic activity; compensation of kaliuresis produced by furosemide ([3]; with Val-O-TA): compensated practically fully
9 | Nc1nc(N)c2nc(-c3ccccc3)c(N)nc2n1 [Triamterene, 2,4,7-triamino-6-phenyl-pteridine, reference compound] | 0.402 | 1.17 | 0.00796 | ED50 (male Wistar rats [2]; [5]): 1.87 µmol/kg; ED50 (male Wistar rats [2]; [6]): 4.4 µmol/kg
10 | CN(C)CCCOc1ccc(-c2nc3c(N)nc(N)nc3nc2N)cc1 [DES-OH, 2,4,7-triamino-6-[4-(3-dimethylaminopropoxy)phenyl]-pteridine, reference compound] | – | – | – | ED50 (male Wistar rats [2]; [5]): 0.54 µmol/kg; ED50 (male Wistar rats [2]; [6]): 5.53 µmol/kg
11 | Nc1nc(N)c2nc(-c3ccc(OCC(O)CN4CCCC4)cc3)c(N)nc2n1 (centres unmarked) [IG, 2,4,7-Triamino-6-[4-(2-hydroxy-3-pyrrolidinopropoxy)phenyl]-pteridine] | 0.172 | 2.14 | 0.0133 | –
12 | CC(C)N(CC(O)COc1ccc(-c2nc3c(N)nc(N)nc3nc2N)cc1)C(C)C (centres unmarked) [IK, 2,4,7-Triamino-6-[4-(2-hydroxy-3-diisopropylaminopropoxy)phenyl]-pteridine] | 0.191 | 2.08 | 0.01024 | –
13 | CCCCNCC(O)COc1ccc(-c2nc3c(N)nc(N)nc3nc2N)cc1 (centres unmarked) [IJ, 2,4,7-Triamino-6-[4-(2-hydroxy-3-n-butylaminopropoxy)phenyl]-pteridine] | 0.176 | 2.86 | 0.01859 | –
14 | NS(=O)(=O)c1cc(C(=O)O)c(NCc2ccco2)cc1Cl [Furosemide, 4-chloro-N-furfuryl-5-sulfamoylanthranilic acid] | – | – | – | Volume of urine (male Wistar rats [4]): 0.0525 L/kg
15 | Nc1nc(N)c2nc(-c3ccc(OCC(O)CN4CCCCC4)cc3)c(N)nc2n1 (centres unmarked) [IF, 2,4,7-Triamino-6-[4-(2-hydroxy-3-piperidinopropoxy)phenyl]-pteridine] | 0.191 | 1.95 | 0.01017 | –
